Test results published in patent publication US12421211B2, “Heterocyclic compounds” (Hoffmann-La Roche Inc., priority 2021, dated 2025).
Counter-ions that a name gives are not always drawn.

Test system: Acinetobacter baumannii ATCC17961
Test: Antimicrobial susceptibility testing: 90% growth inhibitory concentration (IC90) determination
Format: cell-based
Conditions: 90% growth inhibitory concentration, Acinetobacter baumannii ATCC17961, Iso-Sensitest broth, OD 600 nm over 16 h; read-out: ATCC 17961 IC90
Method in brief: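 A. baumannii ATCC17961 at ~5×10^5 CFU/ml in Iso-Sensitest broth exposed to 10-point twofold dilutions (e.g. 50–0.097 μM final), 35±2° C. OD600 read every 20 minutes over 16h; IC50 and IC90 derived from inhibition during logarithmic growth.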

Work on “cis 2-[1-(azetidin-3-ylmethyl)-4-[4-[2-chloro-4-[[5-[3-fluoro-4-[1-(2-methoxyethyl)-3-methyl-pyrazol-4-yl]phenyl]-1-methyl-imidazole-2-carbonyl]amino]benzoyl]piperazine-1-carbonyl]piperidin-1-ium-1-yl]acetic acid; 2,2,2-trifluoroacetate [Example O7]” yielded an IC90 of 140 nM.

Same assay, conditions: Acinetobacter baumannii, ATCC17961, 16 h, 90% growth inhibitory concentration, Acinetobacter baumannii ATCC17961, Iso-Sensitest broth, OD 600 nm over 16 h; read-out: ATCC 17961 IC90

First: Cc1nn(CC(=O)Nc2cn[nH]c2)cc1-c1ccc(-c2cnc(C(=O)Nc3ccc(C(=O)N4CCN(C(=O)C5CC[N+](C)(C)CC5)CC4)c(Cl)c3)n2C)c(F)c1F [Example G11, N-[3-chloro-4-[4-(1,1-dimethylpiperidin-1-ium-4-carbonyl)piperazine-1-carbonyl]phenyl]-5-[2,3-difluoro-4-[3-methyl-1-[2-oxo-2-(1H-pyrazol-4-ylamino)ethyl]pyrazol-4-yl]phenyl]-1-methyl-imidazole-2-carboxamide; formate]
Second: Cc1nn(CC(=O)Nc2ncccn2)cc1-c1ccc(-c2cnc(C(=O)Nc3ccc(C(=O)N4CCN(C(=O)C5CC[N+](C)(C)CC5)CC4)c(Cl)c3)n2C)c(F)c1F [Example G16, N-[3-chloro-4-[4-(1,1-dimethylpiperidin-1-ium-4-carbonyl)piperazine-1-carbonyl]phenyl]-5-[2,3-difluoro-4-[3-methyl-1-[2-oxo-2-(pyrimidin-2-ylamino)ethyl]pyrazol-4-yl]phenyl]-1-methyl-imidazole-2-carboxamide; formate]
The IC90 of the first is 1.5-fold lower: 710 nM for the first, 1100 nM for the second.

Compared with COc1ccc(-c2[nH]ncc2-c2ccc(-c3cnc(C(=O)Nc4ccc(C(=O)N5CCN(C(=O)C6CCNCC6)CC5)c(Cl)c4)n3C)c(F)n2)cc1 [Example E17, N-[3-chloro-4-[4-(piperidine-4-carbonyl)piperazine-1-carbonyl]phenyl]-5-[2-fluoro-6-[5-(4-methoxyphenyl)-1H-pyrazol-4-yl]-3-pyridyl]-1-methyl-imidazole-2-carboxamide; formic acid], Cn1c(-c2ccc(-c3cn[nH]c3)cc2)cnc1C(=O)Nc1ccc(C(=O)N2CCN(C(=O)C3CCNCC3)CC2)c(Cl)c1 [Example E23, N-[3-chloro-4-[4-(piperidine-4-carbonyl)piperazine-1-carbonyl]phenyl]-1-methyl-5-[4-(1H-pyrazol-4-yl)phenyl] imidazole-2-carboxamide] is 5.1-fold lower in IC90: 710 nM for the first, 140 nM for the second.

First: COCCn1ncc(-c2ccc(-c3cnc(C(=O)Nc4ccc(C(=O)NCC5CCNCC5)c(Cl)c4)n3C)c(F)c2F)c1C [Example E10, N-[3-chloro-4-(4-piperidylmethyl-carbamoyl)phenyl]-5-[2,3-difluoro-4-[1-(2-methoxyethyl)-5-methyl-pyrazol-4-yl]phenyl]-1-methyl-imidazole-2-carboxamide; 2,2,2-trifluoroacetic acid]
Second: COCCn1ncc(-c2ccc(-c3cnc(C(=O)Nc4ccc(C(=O)N5CCN(C(=O)[C@@H]6C[C@@H](O)CN6)CC5)c(Cl)c4)n3C)c(F)c2F)c1C [Example E9, N-[3-chloro-4-[4-[(2S,4R)-4-hydroxypyrrolidine-2-carbonyl]piperazine-1-carbonyl]phenyl]-5-[2,3-difluoro-4-[1-(2-methoxyethyl)-5-methyl-pyrazol-4-yl]phenyl]-1-methyl-imidazole-2-carboxamide; 2,2,2-trifluoroacetic acid]
The IC90 of the first is 2.6-fold higher: 170 nM for the first, 65 nM for the second.

COCCCn1cc(-c2ccc(-c3cnc(C(=O)Nc4ccc(C(=O)N5CCN(C(=O)[C@@H]6COCC[N+]6(C)C)CC5)c(Cl)c4)n3C)c(F)c2F)c(C)n1 [Example D13, N-[3-chloro-4-[4-[(3S)-4,4-dimethylmorpholin-4-ium-3-carbonyl]piperazine-1-carbonyl]phenyl]-5-[2,3-difluoro-4-[1-(3-methoxypropyl)-3-methyl-pyrazol-4-yl]phenyl]-1-methyl-imidazole-2-carboxamide; formate] and COCCn1cc(-c2ccc(-c3cnc(C(=O)Nc4ccc(C(=O)N5CCN(C(=O)[C@H]6C[C@H](O)C[N+]6(C)C)CC5)c(Cl)c4)n3C)c(F)c2F)c(C)n1 [Example D8, N-[3-chloro-4-[4-[(2R,4S)-4-hydroxy-1,1-dimethyl-pyrrolidin-1-ium-2-carbonyl]piperazine-1-carbonyl]phenyl]-5-[2,3-difluoro-4-[1-(2-methoxyethyl)-3-methyl-pyrazol-4-yl]phenyl]-1-methyl-imidazole-2-carboxamide; formate] are within 1.5-fold of each other in IC90: 340 nM for the first, 300 nM for the second.

Cc1c(-c2ccc(-c3cnc(C(=O)Nc4ccc(C(=O)N5CCN(C(=O)[C@@H]6C[C@@H](O)C[N+]6(C)C)CC5)c(Cl)c4)n3C)c(F)c2F)cnn1CCCO [Example F17, N-[3-chloro-4-[4-[(2S,4R)-4-hydroxy-1,1-dimethyl-pyrrolidin-1-ium-2-carbonyl]piperazine-1-carbonyl]phenyl]-5-[2,3-difluoro-4-[1-(3-hydroxypropyl)-5-methyl-pyrazol-4-yl]phenyl]-1-methyl-imidazole-2-carboxamide; formate] and COCCn1cc(-c2ccc(-c3cnc(C(=O)Nc4ccc(C(=O)N5CCN(C(=O)[C@@H]6C[C@@H](O)C[N+]6(C)CCCO)CC5)c(Cl)c4)n3C)c(F)c2F)c(C)n1 (stereo partly drawn) [Example B27, N-[3-chloro-4-[4-[(2S,4R)-4-hydroxy-1-(3-hydroxypropyl)-1-methyl-pyrrolidin-1-ium-2-carbonyl]piperazine-1-carbonyl]phenyl]-5-[2,3-difluoro-4-[1-(2-methoxyethyl)-3-methyl-pyrazol-4-yl]phenyl]-1-methyl-imidazole-2-carboxamide; iodide] are within 1.5-fold of each other in IC90: 270 nM for the first, 240 nM for the second.

First: Cn1c(-c2ccc(-c3cn(CCCC(N)=O)nc3C(F)(F)F)c(F)c2F)cnc1C(=O)Nc1ccc(C(=O)N2CCN(C(=O)C3CC[N+](C)(C)CC3)CC2)c(Cl)c1 [Example F34, 5-[4-[1-(4-amino-4-oxo-butyl)-3-(trifluoro-methyl)pyrazol-4-yl]-2,3-difluoro-phenyl]-N-[3-chloro-4-[4-(1,1-dimethylpiperidin-1-ium-4-carbonyl)piperazine-1-carbonyl]phenyl]-1-methyl-imidazole-2-carboxamide; formate]
Second: COCCn1cc(-c2ccc(-c3cnc(C(=O)Nc4ccc(C(=O)N5CCN(C(=O)C6CC[N+](C)(C)CC6)CC5)c(Cl)c4)n3C)c(F)c2F)c(C(F)(F)F)n1 [Example F36, N-[3-chloro-4-[4-(1,1-dimethylpiperidin-1-ium-4-carbonyl)piperazine-1-carbonyl]phenyl]-5-[2,3-difluoro-4-[1-(2-methoxyethyl)-3-(trifluoromethyl)pyrazol-4-yl]phenyl]-1-methyl-imidazole-2-carboxamide; formate]
The IC90 of the first is 2.5-fold lower: 230 nM for the first, 580 nM for the second.

Compared with Cc1n[nH]cc1-c1ccc(-c2cnc(C(=O)Nc3ccc(C(=O)N4CCN(C(=O)CCC[N+](CCCN)(CCCN)CC(=O)O)CC4)c(Cl)c3)n2C)c(F)c1F [Example D41, bis(3-aminopropyl)-(carboxymethyl)-[4-[4-[2-chloro-4-[[5-[2,3-difluoro-4-(3-methyl-1H-pyrazol-4-yl)phenyl]-1-methyl-imidazole-2-carbonyl]amino]benzoyl]piperazin-1-yl]-4-oxo-butyl]ammonium; formic acid; formate], Cc1nn(CCNC(=O)c2ccccn2)cc1-c1ccc(-c2cnc(C(=O)Nc3ccc(C(=O)N4CCN(C(=O)C5CC[N+](C)(C)CC5)CC4)c(Cl)c3)n2C)c(F)c1F [Example H2, N-[2-[4-[4-[2-[[3-chloro-4-[4-(1,1-dimethylpiperidin-1-ium-4-carbonyl)piperazine-1-carbonyl]phenyl]carbamoyl]-3-methyl-imidazol-4-yl]-2,3-difluoro-phenyl]-3-methyl-pyrazol-1-yl]ethyl]pyridine-2-carboxamide; formate] is 3.1-fold higher in IC90: 61 nM for the first, 190 nM for the second.

Cn1c(-c2ccc(-c3cnn4c3CCC4)c(F)c2F)cnc1C(=O)Nc1ccc(C(=O)N2CCN(C(=O)C3CC[N+](C)(C)CC3)CC2)c(Cl)c1 [Example F28, N-[3-chloro-4-[4-(1,1-dimethylpiperidin-1-ium-4-carbonyl)piperazine-1-carbonyl]phenyl]-5-[4-(5,6-dihydro-4H-pyrrolo[1,2-b]pyrazol-3-yl)-2,3-difluoro-phenyl]-1-methyl-imidazole-2-carboxamide; formate] showed an IC90 of 270 nM.

Same assay, conditions: Acinetobacter baumannii, ATCC17961, 16 h, read-out: ATCC 17961 IC90

Cc1ccc(NC(=O)Cn2cc(-c3ccc(-c4cnc(C(=O)Nc5ccc(C(=O)N6CCN(C(=O)C7CC[N+](C)(C)CC7)CC6)c(Cl)c5)n4C)c(F)c3F)c(C)n2)nn1 [Example L3, N-[3-chloro-4-[4-(1,1-dimethylpiperidin-1-ium-4-carbonyl)piperazine-1-carbonyl]phenyl]-5-[2,3-difluoro-4-[3-methyl-1-[2-[(6-methylpyridazin-3-yl)amino]-2-oxo-ethyl]pyrazol-4-yl]phenyl]-1-methyl-imidazole-2-carboxamide; formate] and COCCn1ncc(-c2ccc(-c3cnc(C(=O)Nc4ccc(C(=O)N5CCN(C(=O)[C@H]6CC[N@+](CC(=O)O)(CC7CNC7)CC6)CC5)c(C)c4)n3C)c(C)c2F)c1C [Example O10, cis 2-[1-(azetidin-3-ylmethyl)-4-[4-[4-[[5-[3-fluoro-4-[1-(2-methoxyethyl)-5-methylpyrazol-4-yl]-2-methylphenyl]-1-methylimidazole-2-carbonyl]amino]-2-methylbenzoyl]piperazine-1-carbonyl]piperidin-1-ium-1-yl]acetic acid; formate] are within 1.5-fold of each other in IC90: 264 nM for the first, 231 nM for the second.

Molecule COCCn1ncc(-c2ccc(-c3cnc(C(=O)Nc4ccc(C(=O)NCC5CCN(C(=O)C[N+](C)(C)C)CC5)c(Cl)c4)n3C)c(F)c2F)c1C [Example A9, [2-[4-[[[2-chloro-4-[[5-[2,3-difluoro-4-[1-(2-methoxyethyl)-5-methyl-pyrazol-4-yl]phenyl]-1-methyl-imidazole-2-carbonyl]amino]benzoyl]amino]methyl]-1-piperidyl]-2-oxo-ethyl]-trimethyl-ammonium; 2,2,2-trifluoroacetate] has an IC90 of 160 nM.
